Assay results: patent US5677459A, “Methods for the preparation of modulators of acetylcholine receptors” (Sibia Neurosciences, Inc., priority 1995, dated 1997)
pIC50: −log10 of the molar value. Where a name gives a salt, the structure may show the parent alone. Read-outs that look alike come from different tables or passages of the source.

Experiments:
[1] = test system: rats; test: Locomotor activity assay; type: in vivo, rat (male Sprague-Dawley); conditions: Rattus norvegicus, sc, s.c.
Method: This assay can be used to assess the primary effect of a compound on general motor activity. A decrease in locomotor activity is indicative of a possible sedative effect on the animal, whereas an increase in locomotor activity is indicative of a stimulant effect on the animal.
Locomotor activity of rats (male Sprague-Dawley (Harlan) weighing 200-250 gm) was measured for 2 hrs in photocell cages immediately after administration of the invention compound. Prior to the test day, the animals were placed in the activity cages for 3 hrs to familiarize them with the experimental environment. On the test day, the animals were placed in the photocell cages and then injected with compound 1.5 hrs later.
The photocell cages were standard rodent cages (30 cm×20 cm×40 cm) with four infrared beams crossing the long axis. The animals were under no motivational constraints and were free to move around. Movements from one infrared beam to another (ambulation) were called "crossover"; successive interruptions of the same beam (vertical and other movements such as grooming) were called "general activity."

[2] = test system: rats with unilateral 6-hydroxydopamine lesions of the nigrostriatal dopamine pathway; type: in vivo, rat (male Sprague-Dawley); conditions: 1 mg/kg base, s.c., per one hour interval
Method: Selective lesions of the brain dopamine pathway using the neurotoxin 6-hydroxydopamine (6-OHDA) in rats can be used as an experimental approach to Parkinson's disease. Unilateral lesions of the nigrostriatal dopamine pathway induce a postural asymmetry which becomes manifested as rotation when the animals are activated by dopamine releasers or dopamine agonists. When amphetamine and other stimulant drugs that induce pre-synaptic release of dopamine from intact nerve terminals are administered, the rats rotate in a direction ipsilateral to the lesion. In contrast, when the rats are injected with post-synaptic dopamine receptor agonists, such as apomorphine, they turn in a contralateral direction, due to the development of supersensitive dopamine receptors in the lesioned side. Thus, the 6-OHDA model can be used to determine if a suspected dopaminergic agent is active, and to differentiate whether such action is pre- or post-synaptic.
The effects of invention compounds on rotational behavior in 6-hydroxydopamine denervated rats were evaluated using the procedure of Ungerstedt and Arbutknott, Brain Res. 24:485-493 (1970). Male Sprague-Dawley rats (Zivic Miller) weighing 170-200 gm were used in the 6-OHDA procedure. The ascending nigrostriatal dopamine pathway was lesioned by unilateral stereotaxic injection of 6-OHDA (8.0 μg) into one substantia nigra. All injections of 6-OHDA were preceded by desmethylimipramine (25 mg/kg i.p.) and pargyline (75 mg/kg i.p.) approximately 30 minutes prior to undergoing stereotaxic surgery for 6-OHDA infusion into the substantia nigra. After one week of recovery from surgery, the effectiveness of the lesions was verified by noting the response of the animals to apomorphine (0.2 mg/kg, s.c.). Only rats with a minimum rate of 80 contralateral turns per 30 minutes (a sign of more than 80-90% dopamine depletion after a 6-OHDA lesion) were used. Two weeks later, the selected rats were tested with invention and reference compounds using an automated rotometer system to record the number and direction of rotations. In order to distinguish spontaneous (non-specific)rotations from induced rotations (specific to the effect of the drug), each rat was used as its own control, employing the following procedure:
The rat was placed in the rotometer system for acclimatation for 15 minutes, the vehicle administered subcutaneously, the rat's rotations recorded for one hour, then test compound was administered s.c. and rotations again recorded for one hour. The number of ipsilateral rotations induced by vehicle was then compared to the number of ipsilateral rotations induced by test compound. Statistical analysis of the data was carried out using Student's t-test (paired).

[3] = test system: ^3 H-Dopamine release, rat striatal slices; test: Ligand-stimulated ^3 H-dopamine release from rat striatal slices; type: cell-based; conditions: in vitro slices, 300 μM
Method: (§1) Measurement of ^3 H-dopamine release from rat striatal slices was performed according to the method of Sacaan et al. (J. Neurochem. 59:245 (1992)). Male Sprague-Dawley rats (250-300 g) were decapitated and the striata or olfactory tubercles dissected quickly on a cold glass surface. The tissue was chopped to a thickness of 300 μm with a McIlwain tissue chopper. After chopping again at right angles the tissue was dispersed and incubated for 10 min. at 37° C. in oxygenated Kreb's buffer. ^3 H-Dopamine (40 Ci/mmol, NEN- Dupont, Boston, Mass.) was added (50 nM) and the tissue was incubated for 30 min. in Kreb's buffer containing 10 μM pargyline and 0.5 mM ascorbic acid. Aliquots of the minced tissue were then transferred to chambers of a Brandel Superfusion system in which the tissue was supported on Whatman GF/B filter discs. The tissue was then superfused with buffer at a constant flow rate of 0.3 ml/min by means of a Brandel peristaltic pump. The perfusate was collected in plastic scintillation vials in 3-min fractions, and the radioactivity was estimated by scintillation spectrophotometry. The superfusate for the first 120 min was discarded. After two baseline fractions had been collected, the superfusion buffer was switched to fresh buffer with or without compound of interest. At the end of the experiment the filter and the tissue were removed, and the radiolabeled neurotransmitter content was estimated after extraction into scintillation fluid. The fractional efflux of radiolabeled neurotransmitter was estimated as the amount of radioactivity in the perfusate fraction relative to the total amount in the tissue.
(§2) Results of studies of the effects of an invention compound (as compared to the effect of nicotine) on the release of neurotransmitters from rat brain slices are presented in Table II. Results presented in Part A of the Table are expressed as the percent fractional release and results presented in Part B of the Table are expressed as a percentage, relative to nicotine response.

[4] = test system: ^3 H-Dopamine release, rat olfactory tubercles; test: Ligand-stimulated ^3 H-dopamine release from rat olfactory tubercles; type: cell-based; conditions: in vitro slices, 300 μM
Method: as §1, §2

[5] = molecular target: muscarinic acetylcholine receptors; test: ^3 H-QNB (quinuclidinyl benzilate) binding/displacement, rat cerebral membranes; conditions: ^3 H-QNB 60 pM, rat cerebral membranes
[6] = test system: ^3 H-Norepinephrine release, rat hippocampus slices; test: Ligand-stimulated ^3 H-norepinephrine release from rat hippocampus slices; type: cell-based; conditions: in vitro slices, 300 μM
Method: as §1
(§3) Following essentially the same procedure as set forth above, the amount of ^3 H-norepinephrine released from rat hippocampus, thalamus and prefrontal cortex slices superfused with buffer containing (or lacking) compounds of interest was also measured.
as §2

[7] = molecular target: T1, nicotinic acetylcholine receptor (Rattus norvegicus, UniProt P09483+P12390); test: ^3 H-Nicotine binding/displacement, rat cerebral membranes; conditions: ^3 H-nicotine 1.9 nM, rat cerebral membranes; read-out: IC50, Nicotine
T1 construct: the brains removed and the cerebral cortex dissected on ice; from tissue; host or cells: cerebral cortex synaptic membranes of male Sprague-Dawley rats
Method: ^3 H-Nicotine binding to rat cerebral membranes was performed according to modifications of the method of Flyn and Mash (J. Neurochem. 47:1948 (1986)). ^3 H-Nicotine (80 ci/mmol; New England Nuclear Corporation, Boston, Mass.) was used as the ligand for nicotinic acetylcholine receptor binding assays. All other reagents were purchased from the Sigma Chemical Co. (St. Louis, Mo.).
Male Sprague-Dawley rats (250-400 gm) were sacrificed by decapitation, the brains removed and the cerebral cortex dissected on ice. Synaptic membranes were prepared by homogenizing the cortical tissue in 20 volumes of ice-cold modified Tris buffer (50 mM Tris pH 7.4, 120 mM NaCl, 5 mM KCl, 2 mM EDTA, 1 mM PMSF) with a polytron (20 sec at setting 5-6) followed by centrifugation (15 min at 5,000×g) at 4° C. The resultant pellet was rehomogenized and centrifuged twice. The final pellet was resuspended in ice-cold assay buffer (50 mM Tris pH 7.4, 120 mM NaCl, 5 mM KCl, 2 mM CaCl2, 1 mM MgCl2) at a concentration of membrane equivalent to 1 gm wet weight cortex per 10 ml buffer. After protein determination the final membrane preparation was diluted with buffer to 3 mg protein/mi. This membrane preparation was used in either the fresh state or frozen (-70° C.) then thawed.
The binding assay is performed manually using 96-well plates, or using a Biomek automated work station (Beckman Instrument Co.). ^3 H-Nicotine was diluted in assay buffer to give a final concentration of 1.9 nM. The Biomek automated work station was programmed to automatically transfer 750 μl of assay buffer with ^3 H-nicotine, 230 μl of membrane preparation and 20 μl of solution containing the compound of interest in assay buffer, DMSO, ethanol:DMSO (1:1) or appropriate vehicle to the 96-well plate. Atropine was added to the incubation buffer at a final concentration of 3 μM to block binding to muscarinic acetylcholine receptor sites. The plates were maintained on ice for 60 min and the tissue-bound radioactivity was separated from the free by rapid filtration in a Brandel Harvester onto GF/C filters presoaked in 0.5% polyethyleneimine for at least 2 hr. The filters were washed with 4×2 ml of ice-cold assay buffer and filters were transferred to vials to which 4 ml of scintillation cocktail was added. The radioactivity was measured in a LS-6500 Beckman Liquid Scintillation Counter in an autodpm mode. Data were analyzed bylog-logit transformation or non-linear regression analysis (e.g., employing GraphPad Prism, available from GraphPad Software, San Diego, Calif.) to give IC50 values. Non-specific binding was defined by 10 μM cytisine.

[8] = test system: ^3 H-Norepinephrine release, rat prefrontal cortex slices; test: Ligand-stimulated ^3 H-norepinephrine release from rat prefrontal cortex slices; type: cell-based; conditions: in vitro slices, 300 μM
Method: as §1, §3, §2

[9] = test system: ^3 H-Norepinephrine release, rat thalamus slices; test: Ligand-stimulated ^3 H-norepinephrine release from rat thalamus slices; type: cell-based; conditions: in vitro slices, 300 μM
Method: as §1, §3, §2

[10] = 1 h, 0-60 min, read-out: Ambulation (cross overs), percent of change from control
[11] = 1 h, 0-60 min, read-out: General Activity (beam breaks), percent of change from control
[12] = 2 h, 60-120 min, read-out: Ambulation (cross overs), percent of change from control
[13] = 2 h, 60-120 min, read-out: General Activity (beam breaks), percent of change from control

T1 sequence (P09483 31-630): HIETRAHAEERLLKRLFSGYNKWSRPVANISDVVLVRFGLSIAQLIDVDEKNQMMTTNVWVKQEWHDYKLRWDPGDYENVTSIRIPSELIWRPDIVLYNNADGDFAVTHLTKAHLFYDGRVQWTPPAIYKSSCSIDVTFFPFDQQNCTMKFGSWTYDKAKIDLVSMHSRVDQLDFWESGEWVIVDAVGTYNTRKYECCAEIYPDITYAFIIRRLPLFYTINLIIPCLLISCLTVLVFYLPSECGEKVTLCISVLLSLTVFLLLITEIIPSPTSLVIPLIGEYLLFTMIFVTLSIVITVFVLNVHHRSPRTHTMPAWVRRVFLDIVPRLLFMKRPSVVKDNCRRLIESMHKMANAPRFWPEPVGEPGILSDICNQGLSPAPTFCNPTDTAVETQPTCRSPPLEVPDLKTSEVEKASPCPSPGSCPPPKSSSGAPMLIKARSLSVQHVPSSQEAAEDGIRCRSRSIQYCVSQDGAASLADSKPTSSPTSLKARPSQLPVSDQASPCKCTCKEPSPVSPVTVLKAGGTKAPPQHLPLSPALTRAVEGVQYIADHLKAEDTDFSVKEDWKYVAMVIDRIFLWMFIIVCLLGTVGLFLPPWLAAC
T1 sequence (P12390 25-500): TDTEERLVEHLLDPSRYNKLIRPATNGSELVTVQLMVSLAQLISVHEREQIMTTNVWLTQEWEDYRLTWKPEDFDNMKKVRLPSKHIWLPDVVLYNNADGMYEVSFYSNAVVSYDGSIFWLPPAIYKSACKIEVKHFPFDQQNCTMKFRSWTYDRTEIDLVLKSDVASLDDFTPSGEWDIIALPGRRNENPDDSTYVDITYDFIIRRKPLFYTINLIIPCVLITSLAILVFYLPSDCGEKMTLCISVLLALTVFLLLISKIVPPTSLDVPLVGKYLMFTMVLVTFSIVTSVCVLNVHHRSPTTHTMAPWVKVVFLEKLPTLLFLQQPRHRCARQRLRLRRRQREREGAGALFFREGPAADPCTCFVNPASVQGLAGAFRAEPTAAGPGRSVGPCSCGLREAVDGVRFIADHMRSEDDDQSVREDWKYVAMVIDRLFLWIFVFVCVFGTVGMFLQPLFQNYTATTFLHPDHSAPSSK

| SMILES | change in vivo at 0.5 mg/kg ([1]; 2 h, 60-120 min, 0.5 mg/kg salt, read-out: General Activity (beam breaks), percent of change from control) | Percent change from control (ipsilateral rotations) [2] | percent fractional release, ^3 H-Dopamine, Striatum [3] | change in vivo at 20 mg/kg [1, 10] | change in vivo at 20 mg/kg [1, 11] | change in vivo at 20 mg/kg [1, 12] | change in vivo at 20 mg/kg [1, 13] | percent fractional release, ^3 H-Dopamine, Olfactory Tubercles [4] | pIC50 [5] | percent fractional release, ^3 H-Norepinephrine, Hippocampus [6] | pIC50 [7] | percent fractional release, ^3 H-Norepinephrine, Prefrontal Cortex [8] | percent fractional release, ^3 H-Norepinephrine, Thalamus [9] |
| --- | --- | --- | --- | --- | --- | --- | --- | --- | --- | --- | --- | --- | --- |
| CC(N)Cc1ccccc1 (stereo not drawn) [Amphetamine, amphetamine, reference compound] | 456% | +487% |  |  |  |  |  |  |  |  |  |  |  |
| CN1CCCC1c1cncc(-c2ccc(O)cc2)c1.O=C(O)/C=C/C(=O)O (stereo not drawn) [R^5 = 4-hydroxyphenyl, 5-(4-Hydroxyphenyl)-3-(1-methyl-2-pyrrolidinyl)pyridine fumarate] |  |  | 3.73% | 74% | 96% | 110% | 7% | 6.62% | 4.72 | 3.03% | 8.27 | 3.16% | 2.3% |
| CN1CCCC1c1cncc(-c2ccc(-c3ccccc3)cc2)c1 (stereo not drawn) [R^5 = 4-biphenyl, 5-(4-Biphenyl)-3-(1-methyl-2-pyrrolidinyl)pyridine fumarate] |  |  | 2.2% | -9% | -17% | 73% | 98% | 6.3% | 5.02 | 2.9% | 7.33 | 3.4% | 1.1% |
| CN1CCCC1c1cncc(-c2ccc(O)c(F)c2)c1.O=C(O)/C=C/C(=O)O (stereo not drawn) [R^5 = 3-fluoro-4-hydroxyphenyl, 5-(4-hydroxy-3-fluorophenyl)-3-(1-methyl-2-pyrrolidinyl)pyridine fumarate] |  |  | 3.33% | 49% | 63% | -14% | 26% | 7.07% | 4.46 | 1.47% | 7.54 | 1.14% |  |
| CN1CCCC1c1cncc(-c2ccc(F)cc2)c1.O=C(O)/C=C/C(=O)O (stereo not drawn) [A = CH2; R^7 = CH3; R^5 = 4-fluorophenyl, 5-(4-Fluorophenyl)-3-(1-methyl-2-pyrrolidinyl) pyridine fumarate] |  |  | 1.96% | 21% | 95% | 14% | 173% | 2.68% |  | 0.58% |  | 1.23% | 0.9% |
| COc1ccc(-c2cncc(C3CCCN3C)c2)cc1.O=C(O)/C=C/C(=O)O (stereo not drawn) [R^5 = 4-methyoxyphenyl, 5-(4-Methoxyphenyl)-3-(1-methyl-2-pyrrolidinyl)pyridine fumarate] |  |  | 2.1% | 58% | 83% | 31% | 22% | 4.0% | 4.42 | 0.99% | 7.74 | 1.04% | 0.52% |
